From patent publication US20100179142A1 (priority 2003, published 2010)

Experiments:
[1] = system: A431 vulval carcinoma xenografts; test: Human A431 vulval carcinoma tumour xenografts in nude mice; details: p.o. daily, AZD2171 3 mg/kg/day, ZD1839 50 mg/kg/day or both; for Number of tumours regressing after 24 days of treatment (treatment from day 28 to day 52): regressing/total
Method: 5×10^6 A431 tumour cells in 0.1 ml of serum free Dulbecco's Modified Eagle's Medium (DMEM) were injected subcutaneously (s.c.) into the flank of each athymic (nu/nu genotype) mouse. Eleven days after inoculation tumours were excised and dissected to generate cubic tumour fragments of 0.5-1 mm^3, which were implanted into further nude mice for a therapy experiment. Tumour volumes were assessed by bilateral Vernier caliper measurement and, taking length to be the longest diameter across the tumour and width the corresponding perpendicular, calculated using the formula (length×width)×the square root of (length×width)×(π/6). […] Inhibition of tumour growth from the start of treatment was assessed on day 45 (the point at which control animals were removed from the experiment because of tumour burden) by comparison of the differences in tumor volume between control and treated groups. In addition, the number of tumour regressions following 24 days of treatment was ascertained (tumour regression being evident if the tumour volume at day 52 was smaller than the pre-treatment value on day 28).

MMTV-neu tumours = format: in vivo, mice
Method: Following pregnancy, which induces activation of the promoter, MMTV-neu mice spontaneously develop multiple tumours within each mammary gland. […] Control animals were dosed with vehicle (1% polysorbate 80). Due to variability in the growth of spontaneous tumours, dosing commenced at different times relative to the assessment of tumour volume, which was determined twice weekly on all animals using calipers. To simplify the analysis, data within each group were collated in 3 day intervals (e.g. tumour volumes from mice receiving either 2, 3 or 4 doses of compound were pooled and the mean volume plotted against “day 3”). Data is plotted for measurements grouped over 3 day periods ie 2-4, 5-7, 8-10 etc. Statistical analysis was performed on measurements between 20 and 22 days of dosing.

SMILES: COc1cc2c(Oc3ccc4[nH]c(C)cc4c3F)ncnc2cc1OCCCN1CCCC1 [AZD2171, 4-(4-fluoro-2-methylindol-5-yloxy)-6-methoxy-7-(3-(pyrrolidin-1-yl)propoxy)quinazoline]
- Number of tumours regressing after 24 days of treatment (treatment from day 28 to day 52) [1]: 2/10
- Mean % Inhibition of tumour growth following 17 days of treatment (treatment from day 28 to day 45) ([1]; versus control at day 45): 95% (P < 0.001)
- inhibition of growth of established MMTV-neu tumours (MMTV-neu tumours; AZD2171 alone 1 or 3 mg/kg/day, orally once-daily, 20-22 days of dosing, P<0.05): inhibited the growth of established (≧0.4 cm^3) MMTV-neu tumours significantly

SMILES: COc1cc2ncnc(Nc3ccc(F)c(Cl)c3)c2cc1OCCCN1CCOCC1 [ZD1839, N-(3-chloro-4-fluorophenyl)-7-methoxy-6-(3-morpholinopropoxy)quinazolin-4-amine, reference compound]
- Number of tumours regressing after 24 days of treatment (treatment from day 28 to day 52) [1]: 2/10
- anti-tumour effect in MMTV-neu mice (MMTV-neu tumours; mouse, in vivo): significant anti-tumour effect
